Laboratory results as given in PubChem BioAssay (NCI).
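Each compound was tested at five concentrations against cells in 96-well plates for 48 hours. TGI is the concentration that stops growth completely.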

Columns and labels:
Experiment in all cases: growth of human tumour cells (NCI), 48 h
[1] = test system: MOLT-4 leukemia
[2] = test system: OVCAR-8 ovarian
[3] = test system: SF-539 CNS
[4] = test system: NCI-H226 lung
[5] = test system: ACHN renal
[6] = test system: NCI-H23 lung
[7] = test system: MALME-3M melanoma
[8] = test system: A549 NSCLC
[9] = test system: SF-268 CNS
[10] = test system: NCI-H460 lung
[11] = test system: U251 CNS
[12] = test system: OVCAR-4 ovarian
[13] = test system: MDA-MB-435
[14] = test system: UACC-62 melanoma
[15] = test system: SF-295 CNS
[16] = test system: K-562 leukemia
[17] = test system: 786-0 renal
[18] = test system: OVCAR-5 ovarian
[19] = test system: SK-MEL-28 melanoma
[20] = test system: PC-3 prostate
[21] = test system: SR leukemia
[22] = test system: RPMI-8226 leukemia
[23] = test system: BT-549 breast
[24] = test system: KM12 colon
[25] = test system: NCI-H522 lung
[26] = test system: HCT-15 colon
[27] = test system: SN12C renal
[28] = test system: HOP-62 NSCLC
[29] = test system: M14 melanoma
[30] = test system: HL-60(TB) leukemia
[31] = test system: COLO 205 colon
[32] = test system: EKVX NSCLC
[33] = test system: MDA-N
[34] = test system: TK-10 renal
[35] = test system: NCI/ADR-RES ovarian
[36] = test system: SW-620 colon
[37] = test system: MDA-MB-231 breast
[38] = test system: SK-MEL-2 melanoma
[39] = test system: SK-OV-3 ovarian
[40] = test system: HCC-2998 colon
[41] = test system: HS 578T breast
[42] = test system: HT29 colon
[43] = test system: LOX IMVI melanoma
[44] = test system: HOP-92 NSCLC
[45] = test system: SNB-19 CNS
[46] = test system: IGROV1 ovarian
[47] = test system: UACC-257 melanoma
[48] = test system: SK-MEL-5 melanoma
[49] = test system: MCF7 breast
[50] = test system: UO-31 renal
[51] = test system: SNB-75 CNS
[52] = test system: RXF 393 renal
[53] = test system: HCT-116 colon
[54] = test system: T-47D breast
[55] = test system: CAKI-1 renal
[56] = test system: OVCAR-3 ovarian
[57] = test system: A498 renal
[58] = test system: CCRF-CEM leukemia

COc1ccc2c(c1)CN1C(=N2)CSC1c1c(Cl)cccc1[N+](=O)[O-] (stereo not given) showed a TGI [1] of 34.8 µM, a TGI [2] of over 100 µM and a TGI [3] of 33 µM. The TGI [4] was 32.2 µM, the TGI [5] was over 100 µM and the TGI [6] was 56.1 µM. For the same compound, the TGI [7] was over 100 µM, the TGI [8] was over 100 µM and the TGI [9] was 53.8 µM. For the same compound, the TGI [10] was 31.5 µM, the TGI [11] was 37 µM and the TGI [12] was over 100 µM. For the same compound, the TGI [13] was 47.5 µM, the TGI [14] was 37 µM and the TGI [15] was 52.6 µM. It also gave a TGI [16] of 61.1 µM, a TGI [17] of 76.9 µM and a TGI [18] of 95.7 µM. The TGI [19] was 44.3 µM, the TGI [20] was 66.3 µM and the TGI [21] was 39 µM. For the same compound, the TGI [22] was 34.1 µM, the TGI [23] was 31.9 µM and the TGI [24] was 44.2 µM. It also gave a TGI [25] of 68.6 µM, a TGI [26] of 40.3 µM and a TGI [27] of 35 µM. For the same compound, the TGI [28] was over 100 µM, the TGI [29] was 37.3 µM and the TGI [30] was 43.8 µM. For the same compound, the TGI [31] was 67.9 µM, the TGI [32] was 77.2 µM and the TGI [33] was 40.9 µM. It also gave a TGI [34] of 84.1 µM, a TGI [35] of 46.4 µM and a TGI [36] of 50.6 µM. It also gave a TGI [37] of 34.6 µM, a TGI [38] of 34.1 µM and a TGI [39] of over 100 µM. For the same compound, the TGI [40] was 41.6 µM, the TGI [41] was over 100 µM and the TGI [42] was 38.1 µM. The TGI [43] was 34.9 µM, the TGI [44] was 55.7 µM and the TGI [45] was over 100 µM. It also gave a TGI [46] of over 100 µM, a TGI [47] of 42.6 µM and a TGI [48] of 27 µM. The TGI [49] was 30 µM, the TGI [50] was 65.1 µM and the TGI [51] was 74.3 µM. It also gave a TGI [52] of 52.2 µM, a TGI [53] of 29.5 µM and a TGI [54] of over 100 µM. For the same compound, the TGI [55] was 64.2 µM.

Work on COP1(=O)OCc2cnccc2O1 (stereo not given) yielded a TGI [1] of over 100 µM, a TGI [2] of over 100 µM and a TGI [3] of over 100 µM. It also gave a TGI [4] of over 100 µM, a TGI [5] of over 100 µM and a TGI [6] of over 100 µM. The TGI [7] was over 100 µM, the TGI [8] was over 100 µM and the TGI [9] was over 100 µM. For the same compound, the TGI [10] was over 100 µM, the TGI [11] was over 100 µM and the TGI [12] was over 100 µM. It also gave a TGI [13] of over 100 µM, a TGI [14] of over 100 µM and a TGI [15] of over 100 µM. For the same compound, the TGI [16] was over 100 µM, the TGI [17] was over 100 µM and the TGI [18] was over 100 µM. It also gave a TGI [19] of over 100 µM, a TGI [20] of over 100 µM and a TGI [21] of over 100 µM. For the same compound, the TGI [22] was over 100 µM, the TGI [23] was over 100 µM and the TGI [24] was over 100 µM. The TGI [25] was over 100 µM, the TGI [26] was over 100 µM and the TGI [27] was over 100 µM. For the same compound, the TGI [28] was over 100 µM, the TGI [29] was over 100 µM and the TGI [56] was over 100 µM. For the same compound, the TGI [31] was over 100 µM, the TGI [32] was over 100 µM and the TGI [33] was over 100 µM. For the same compound, the TGI [34] was over 100 µM, the TGI [35] was over 100 µM and the TGI [36] was over 100 µM. It also gave a TGI [37] of over 100 µM, a TGI [38] of over 100 µM and a TGI [39] of over 100 µM. The TGI [40] was over 100 µM, the TGI [41] was over 100 µM and the TGI [42] was over 100 µM. For the same compound, the TGI [43] was over 100 µM, the TGI [45] was over 100 µM and the TGI [46] was over 100 µM. The TGI [47] was over 100 µM, the TGI [48] was over 100 µM and the TGI [49] was over 100 µM. It also gave a TGI [50] of over 100 µM, a TGI [51] of over 100 µM and a TGI [53] of over 100 µM. It also gave a TGI [54] of over 100 µM and a TGI [55] of over 100 µM.

Work on O=C1Cc2c([nH]c3ccc([N+](=O)[O-])cc23)-c2ccccc2N1 yielded a TGI [1] of 1.44 µM, a TGI [2] of over 100 µM and a TGI [57] of over 19.7 µM. For the same compound, the TGI [58] was 0.325 µM, the TGI [3] was 16.8 µM and the TGI [4] was 18.2 µM. For the same compound, the TGI [5] was over 18.2 µM, the TGI [6] was 6.37 µM and the TGI [7] was over 100 µM. The TGI [8] was over 56.8 µM, the TGI [9] was over 94.6 µM and the TGI [10] was over 63 µM. For the same compound, the TGI [11] was over 83.1 µM, the TGI [12] was 6.11 µM and the TGI [13] was over 100 µM. The TGI [15] was over 100 µM, the TGI [16] was 9.23 µM and the TGI [17] was over 100 µM. The TGI [18] was 0.77 µM, the TGI [20] was over 100 µM and the TGI [22] was 2.98 µM. It also gave a TGI [23] of over 100 µM, a TGI [24] of over 55.1 µM and a TGI [25] of over 26.2 µM. It also gave a TGI [26] of over 100 µM, a TGI [27] of 19.1 µM and a TGI [28] of 18.8 µM. For the same compound, the TGI [29] was over 30 µM, the TGI [30] was 0.752 µM and the TGI [31] was 1.16 µM. It also gave a TGI [32] of 2.38 µM, a TGI [33] of 8.44 µM and a TGI [34] of over 37.9 µM. For the same compound, the TGI [35] was over 84 µM, the TGI [36] was over 58.5 µM and the TGI [37] was over 100 µM. For the same compound, the TGI [38] was 5.62 µM, the TGI [39] was over 100 µM and the TGI [40] was over 49.1 µM. For the same compound, the TGI [41] was over 21.2 µM, the TGI [42] was 4.46 µM and the TGI [43] was over 100 µM. It also gave a TGI [44] of over 100 µM, a TGI [45] of over 32.7 µM and a TGI [46] of over 100 µM. It also gave a TGI [47] of over 62.8 µM, a TGI [48] of 2.02 µM and a TGI [49] of over 100 µM. It also gave a TGI [52] of 14.6 µM, a TGI [53] of 1.96 µM and a TGI [54] of over 100 µM. The TGI [55] was over 95.7 µM.
